The record followed here is PMC8954792 (Viruses, 2022).

This experiment has as its system authentic SARS-CoV-2 Delta (B.1.617.2) variant. Briefly: microbe, parasite or virus in culture. The format is cell-based. As to conditions: Severe acute respiratory syndrome coronavirus 2, Vero C1008.
Consider `C#CCOc1ccc(CCN2C(=O)/C(=C/c3ccc(-c4ccc(Cl)c(C(=O)O)c4)o3)SC2=S)cc1` [FD007], for which the half-maximal inhibitory concentration (IC50) (commonly the midpoint of a concentration-inhibition curve) is 0.0525 µM.

For the compound `C#CCOCCOc1ccc(CCN2C(=O)/C(=C/c3ccc(-c4ccc(Cl)c(C(=O)O)c4)o3)SC2=S)cc1` [FD008], half-maximal inhibition (IC50) was put at 0.0959 µM. Then `CCOc1ccc(CCN2C(=O)/C(=C/c3ccc(-c4ccc(Cl)c(C(=O)O)c4)o3)SC2=S)cc1` [FD009], with 0.0135 µM; and `O=C(O)c1cc(-c2ccc(/C=C3\SC(=S)N(CCc4ccc(OCc5ccc(F)cc5)cc4)C3=O)o2)ccc1Cl` [FD010], with 0.0263 µM. Then `O=C(O)c1cc(-c2ccc(/C=C3\SC(=S)N(CCc4ccc(OCC5CC5)cc4)C3=O)o2)ccc1Cl` [FD012], with 0.127 µM; and `O=C(O)c1cc(-c2ccc(/C=C3\SC(=S)N(CCc4ccc(OCc5ccsc5)cc4)C3=O)o2)ccc1Cl` [FD013], with 0.0603 µM. Compound `CCC(CC)COC(=O)[C@H](C)N[P@](=O)(OC[C@H]1O[C@@](C#N)(c2ccc3c(N)ncnn23)[C@H](O)[C@@H]1O)Oc1ccccc1` [Remdesivir, remdesivir, reference compound] yielded an IC50 of 0.0186 µM.
